Source: US20110160266A1, “Novel Anti-Arrhythmia Agent” (THE UAB RESEARCH FOUNDATION, priority 2008, published 2011)
Entries after “also recorded” stand apart in the source; their conditions may differ. Counter-ions that a name gives are not always drawn.

How the values were obtained:
rat left atria [1] = test: Suppression of STA induced by 2-APB plus BayK 8644 or isoproterenol in left atria
Method: 3 Hz-paced left atria (n=9 per group) were superfused (i) in Krebs-Henseleit alone or (ii) they were treated with 20 μM 2-APB for 10 min, (iii) with 300 nM BayK 8644 for 10 min and with 20 μM 2-APB for 10 min, or (iv) they were treated with 300 nM BayK 8644 and 20 μM 2-APB for 10 min, then with 70 μM zatebradine (3-[3-[[2-(3,4-Dimethoxyphenyl)ethyl]methyl amino]propyl]-1,3,4,5-tetrahydro-7,8,-dimethoxy-2H-3-benzazepin-2-one hydrochloride) for 10 min (Baruscotti et al., 2005). Pacing was interrupted at these times and rates of SMA were recorded.
Left atria (n=9) were paced at 0.1 Hz, treated with 300 nM BayK 8644 for 5 min, then with 20 μM 2-APB for 10 min, and the pacing stimulus was stopped. These preparations then were incubated with six increasing concentrations of zatebradine (10-100 μM) for 3-5 min at each concentration, and rates of SMA were recorded. Untreated right atria (n=9) also were titrated with zatebradine and its effect on contraction frequency was recorded.
To test whether zatebradine affects left atrial force of contraction, two groups of left atria (n=9 per group) were paced at 3 Hz and treated with 300 nM BayK 8644. Five minutes later one group was incubated with six increasing concentrations of zatebradine (10-100 μM) for 3-5 min at each concentration, and forces of contraction were recorded. A second group was treated with BayK 8644 but not zatebradine, and forces of contraction were recorded at corresponding times.
To test whether zatebradine affects the SMA occurring in the presence of 2-APB and isoproterenol, left atria (n=7) were paced at 0.1 Hz, treated with 30 nM isoproterenol for 5 min, then with 20 μM 2-APB for 10 min, and the pacing stimulus was stopped. Rates of SMA were recorded, these left atria were exposed to 70 μM zatebradine for 10 min, and rates of SMA were recorded again. A group of right atria (n=7) also were exposed to 30 nM isoproterenol for 5 min and then to 70 μM zatebradine for 10 min. Right atrial contraction frequency was recorded at these two times.
To test whether ZD-7288, an If inhibitor structurally unrelated to zatebradine (Baruscotti et al., 2005; Sanders et al., 2006) affects the SMA occurring in the presence of 2-APB and BayK 8644, rat left atria (n=7) were treated with 300 nM BayK 8644 for 5 min, then with 20 μM 2-APB for 10 min, and the rates of ectopic activity were recorded. These atria then were incubated with six increasing concentrations of ZD-7288 (10-100 μM) for 3-5 min at each concentration, and the rates of SMA were recorded. Right atria (n=7) were titrated similarly with ZD-7288 (0-100 μM) and the change in their contraction frequency was recorded.
In these experiments, a 2-APB model system was used to simulate tachycardic abnormal automaticity. Specifically, superfused left atria were treated sequentially with 300 nM BayK 8644, an activator of voltage-dependent calcium entry, which loads myocytes with calcium, and then with 2-APB (20 μM) to activate the putative myocyte system for abnormal automaticity. […] SKF-96365 (10 μM) was added to the superfusate. SKF-96365 reversed STA in these left atria within 2-3 min and the muscle became quiescent in the absence of pacing (FIG. 34, “Rest”).
Additional experiments determined the concentration-dependence of SKF-96365 inhibition of STA. These experiments were performed as described above except that various concentrations of SKF-96365 were added to the left atrial superfusate (about 10-70 μM). Exposing left atria to various concentrations of SKF-96365 reversed STA (FIG. 35).

rat left atria [2] = system: rat left atria
rat left atria [3] = test: tissue or blood; details: 5 min, read-out: IC50 for suppression of triggered ectopic contractions induced by ATX II
rat left atria [4] = test: Chaotic, fibrillation-like activity in left atria at 37° C., paced at 6 Hz
Method: In this example, it was evaluated whether SKF-96365 could reverse chaotic, fibrillation-like activity. In these experiments, left atria were superfused at 37° C., paced at 6 Hz (a physiological rate under these conditions), exposed to 300 nM BayK 8644 to load calcium and then to 20 μM 2-APB to induce tachycardic activity.

rat left atria [5] = test: Reversal or prevention of 2-APB-induced SMA in superfused rat left atria
Method: (A) Titration curve of ranolazine reversal of SMA in superfused left atrial appendage. Superfused appendages (n=7) were treated with 2-APB and following the appearance of SMA they were titrated with increasing concentrations of ranolazine for 3-5 min at any concentration. Rates of SMA in the absence of pacing were recorded. (B) Typical raw mechanical data for an appendage treated with 2-APB and then with 0, 10 or 80 μM ranolazine. All data are in the absence of pacing. […]
To test whether an anion transport inhibitor affected SMA, atria (n=7) were paced at 0.1 Hz in KH and exposed to 15 μM 2-APB. Following the appearance of SMA, they were titrated with 100 to 400 μM DIDS for 3 to 5 min at each concentration. Whether SMA occurred at the end of each titration period was recorded.
In these experiments, a 2-APB model system was used to simulate abnormal automaticity. Specifically, paced (0.1 Hz) superfused left atria were treated with 2-APB (20 μM) and the pacing stimulus was stopped after the appearance of SMA. SKF-96365 (25 μM) was then added to the superfusate and the effect on SMA was measured.
Additional experiments determined the concentration-dependence of SKF-96365 inhibtion of SMA. These experiments were performed as described above except that various concentrations of SKF-96365 were added to the left atrial superfusate (about 10-65 μM).
In these experiments, a 2-APB model system was used to simulate abnormal automaticity. Specifically, superfused left atria were exposed to 0 or to 50 μM SKF-96365 for 10 min. Following this pre-incubation, muscles were titrated with increasing concentrations of 2-APB (0-30 μM) and the rate of SMA was measured about 10 min later in the absence of pacing.

COc1ccc(CCCOC(Cn2ccnc2)c2ccc(OC)cc2)cc1 (stereo not drawn) [SKF-96365, 1-[β-(3-(4-Methoxyphenyl)propoxy)-4-methoxyphenethyl]-1H-imidazole hydrochloride]
time to reversal of STA (rat left atria [1]; 300 nM BayK 8644 + 20 μM 2-APB, SKF-96365 (10 μM), absence of pacing): 2 to 3 min
effect on STA initiated by BayK 8644 and 2-APB (rat left atria [1]; 300 nM BayK 8644 + 20 μM 2-APB, zatebradine 70 μM, ZD-7288 10-100 μM, SKF-96365 about 10-70 μM, hydrochloride): reverses STA
effect on normal excitation-contraction coupling (rat left atria [1]; after STA reversal, 0.1 Hz pacing restored): did not affect normal excitation-contraction coupling
triggered activity after exposure to SKF-96365 (rat left atria [2]; 25 nM ATX II, 20 μM SKF-96365 for ~5 min, 1 Hz pacing, hydrochloride): shows no triggered activity; also recorded: shows no triggered events; also recorded: suppresses triggered activity
effect on left atrial force of contraction / mechanical performance (titration) (rat left atria [2]; 25 nM ATX II, 1 Hz-paced, ~5 min at each concentration, hydrochloride): did not decrease the mechanical performance; also recorded: did not affect left atrial force of contraction
prevention of triggered activity by pre-treatment (rat left atria [2]; SKF-96365 20 μM (legend 20-25 μM) for ~10 min before 25 nM ATX II, recorded over 10-15 min, hydrochloride): prevents the appearance of triggered activity; also recorded: triggered activity does not occur
time to reversal of triggered activity (rat left atria [2]; SKF-96365 added to superfusate of left atria undergoing ATX II triggered activity): 2 to 5 min
IC50 (rat left atria [3]): ~12 µM
time to restoration of normal patterns of excitation-contraction (rat left atria [4]; ~40 μM SKF-96365, 300 nM BayK 8644 + 20 μM 2-APB): 5 to 8 min
effect on chaotic, fibrillation-like mechanical activity (rat left atria [4]; ~40 μM SKF-96365, hydrochloride): restores normal patterns of excitation-contraction; also recorded: no longer contracted chaotically
effect on normal excitation-contraction coupling (rat left atria [5]; 25 μM SKF-96365, 0.1 Hz pacing restored after SMA suppression): did not affect normal excitation-contraction coupling
time to suppression of SMA (rat left atria [5]; 25 μM SKF-96365, 2-APB-treated left atria, absence of pacing): 2 to 3 min
prevention of SMA by pre-treatment (rat left atria [5]; 50 μM SKF-96365 for 10 min, then 2-APB 0-30 μM, measured ~10 min later without pacing, hydrochloride): prevents the appearance of SMA
IC50 (rat left atria [5]; Rattus norvegicus, read-out: IC50 for inhibition (reversal) of SMA): ~15 µM
effect on 2-APB-induced sporadic ectopic activity (SMA) (rat left atria [5]; titration after appearance of SMA, absence of pacing): suppressed SMA
time to suppression of SMA (rat left atria [5]; various concentrations of SKF-96365 (about 10-65 μM)): 2 to 3 min
